Data reported in patent US11026945B2, “Protein kinase RNA-like endoplasmic reticulum kinase (PERK) inhibitors for prevention and/or treatment of lung injury and/or inflammation” (THE TRUSTEES OF THE UNIVERSITY OF PENNSYLVANIA, priority 2016, dated 2021).

What was measured:
AEC-I monolayers [1] = test: Monolayer permeability, FITC-labeled streptavidin binding to biotin; type: cell-based, rat; settings: stretched monolayers (25%, 6 hrs), 1 μM PI pretreatment 18 hours
Description: To obtain monolayer rat type-II alveolar epithelial cells (AEC-II), cells were isolated from Sprague-Dawley rats (250-300 g, N=30 purchased from Charles River Laboratories, Wilmington, Mass.) described by Tschumperlin D J, Margulies SS. Equibiaxial deformation-induced injury of alveolar epithelial cells in vitro. Am J Physiol. 1998; 275(6 Pt 1):L1173-83. Epub 1998/12/09 (PubMed PMID: 9843855), with modifications. Briefly, animals were killed and the lungs were harvested. The lung tissue was digested with elastase at 37° C. and distal airways were isolated. Following, cells were placed on rat IgG coated containing no serum for 90 minutes to eliminate contaminating leukocytes and parenchymal cells. This isolation method yielded approximately 95% pure alveolar epithelial cell population. 1.3 million cells were plated on 1 cm diameter fibronectin-coated custom made silastic membranes. In permeability studies, biotin were mixed with fibronectin and membranes were pretreated with oxygen plasma coating to ensure homogenous distribution of the fibronectin. Cells were cultured with 10% fetal bovine serum (FBS)-containing Minimal Essential Medium (MEM) containing low dose antibiotics for 3 days. 32 to 40 monolayers were per rat. On the 3rd day, matured monolayers were randomized to be exposed to one of the treatments for 24 hours (N=3 monolayers/treatment): • A. RNAiMax transfection reagent treatment using serum free media (Opti-MEM, Thermo Fisher Scientific, Waltham, Mass.). This is a negative control for siRNA experiments where serum free media is used for improved transfection efficiency; • B. non-targeting siRNA treatment ([…], Dharmacon) serves a negative control for transfection; • C. […]
The dose of siRNA and PI treatment was selected based on dose-response curves above (FIG. 2A-FIG. 2E). […] All membranes were treated with FITC-labeled streptavidin (Thermo Fisher Scientific) at the end of the experiment and light emission was detected at 488 nm with fluorescent microscopy (Nikon TE300, Melville, N.Y.). […]

AEC-I monolayers [2] = test: Cytokine levels in culture supernatant, multiplex bead assay; type: cell-based, rat; settings: stretched monolayers, PI treatment
Method: Given the interest in cytokines as a biomarker of injury, the contribution of ISR signaling to stretch-induced proinflammatory mediator release was assessed by measuring the level of 26 common cytokines in the culture media in the presence and absence of PI. Generally low cytokine response to stretch was found with modest elevations in IL-18, IL-1α and MIP-1α (FIG. 4A-FIG. 4C). […] (FIG. 4A). To study the regulation of IL-18 by ISR, stretched and unstretched cells were treated with CHOP, ATF4 and PERK siRNA (FIG. 17A-FIG. 17B and FIG. 4D-FIG. 4F). […] Cell culture media IL-18 levels were compared to no siRNA and non-targeting siRNA treatments.
Culture media of stretched and unstretched AEC-I monolayers was collected at the end of the experiment. N=5 biological monolayer replicates were used per condition. 0.5 ml samples were concentrated to 30 μl using centrifugal filters (Amicon Ultra, EMD Millipore). Levels of 26 common cytokines and chemokines were measured with RECYTMAG-65K MILLIPLEX MAP Rat Cytokine Chemokine Magnetic Bead Panel multiplex bead assay (EMD Millipore Corp., Billerica, Mass.) in triplicates per the manufacturer's protocol. 25 μl samples were used. The following analytes were measured: epidermal growth factor (EGF), eotaxin, macrophage colony stimulating factor […], interleukin (IL)-1α, 2,4,5,6,10,12 (p70), 13, 17A, 18; granulocyte-macrophage colony stimulating factor (GM-CSF), regulated on activation, normal T cell expressed and secreted (RANTES), vascular […] growth factor (VEGF), fractalkine, interferon-γ (INFγ), interferon-γ-inducible protein 10 (IP-10), leptin, tumor necrosis factor-α (TNF-α), keratinocyte chemoattractant (GRO/KC), macrophage inflammatory protein (MIP)-1α and 2, monocyte chemoattractant protein (MCP-1), and LPS-induced chemokine (LIX). Samples were read in triplicates and an averaged value was obtained.

Cn1cc(-c2ccc3c(c2)CCN3C(=O)Cc2cccc(C(F)(F)F)c2)c2c(N)ncnc21 [PI, 1-[5-(4-Amino-7-methyl-7H-pyrrolo[2,3-d]pyrimidin-5-yl)indolin-1-yl]-2-(3-trifluoromethylphenyl)ethanone]
monolayer permeability (AEC-I monolayers [1]): significantly reduced
IL-1α level in supernatant (AEC-I monolayers [2]): did not affect
IL-18 level in supernatant (AEC-I monolayers [2]): decreased
MIP-1α level in supernatant (AEC-I monolayers [2]): did not affect
